ChEMBL document CHEMBL5233288, “Ginkgo Biflavones Cause p53 Wild-Type Dependent Cell Death in a Transcription-Independent Manner of p53” (J Nat Prod, 2023)
Calls of active or inactive are those of the source. The rule behind the calls is not given here.

Experiments:
[1] = tested on: HCT-116; assay: Upregulation of acetylated p53 protein expression in human HCT-116 cells expressing wild type p53 at 20 uM incubated for 24 hrs by western blot analysis; type: functional, cell-based
[2] = tested on: HCT-116; assay: Downregulation of MDM2 protein expression in human HCT-116 cells at 10 uM incubated for 24 hrs in presence of 10 uM 5-FU by western blot analysis; type: functional, cell-based
[3] = tested on: HCT-116; assay: Induction of mitochondrial membrane potential depolarization in human HCT-116 cells assessed as reduction in mitochondrial membrane potential at 20 uM incubated for 24 hrs by JC-1 staining based fluorescence analysis; type: functional, cell-based
[4] = tested on: HCT-116; assay: Induction of cell cycle arrest in human HCT-116 cells expressing wild type p53 assessed as accumulation of cells at G1 phase at 20 uM incubated for 24 hrs by PI staining based flow cytometry (reference value: 62.5 to 66.7%); type: functional
[5] = target: Cellular tumor antigen p53 (Homo sapiens) (UniProt P04637); assay: Inhibition of p53 transcriptional activity in human HCT-116 cells assessed as inhibition of protein binding to p21 DNA promoter region at 20 uM incubated for 24 hrs by ChIP analysis; type: cell-based
Cellular tumor antigen p53 (Homo sapiens), sequence (P04637 whole entry, looked up): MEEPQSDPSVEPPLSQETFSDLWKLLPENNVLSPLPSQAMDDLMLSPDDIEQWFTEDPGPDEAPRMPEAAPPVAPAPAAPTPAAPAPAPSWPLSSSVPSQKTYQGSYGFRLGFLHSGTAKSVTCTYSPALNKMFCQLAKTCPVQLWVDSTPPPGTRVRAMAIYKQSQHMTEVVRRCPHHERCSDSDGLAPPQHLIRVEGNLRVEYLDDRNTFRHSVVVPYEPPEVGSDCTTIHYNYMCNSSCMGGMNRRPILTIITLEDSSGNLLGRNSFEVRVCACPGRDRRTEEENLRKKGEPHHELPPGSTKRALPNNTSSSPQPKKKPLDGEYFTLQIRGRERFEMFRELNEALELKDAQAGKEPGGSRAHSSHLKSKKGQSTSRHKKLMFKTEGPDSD

[6] = tested on: SW-620; assay: Cytotoxicity against human SW620 cells expressing p53 mutant assessed as induction of cell death at 20 uM incubated for 72 hrs by resazurin based analysis; type: functional
[7] = tested on: HT-29; assay: Cytotoxicity against human HT-29 cells expressing p53 mutant assessed as induction of cell death at 20 uM incubated for 72 hrs by resazurin based analysis; type: functional
[8] = tested on: HCT-116; assay: Induction of apoptosis in human HCT-116 cells expressing wild type p53 assessed as viable cells at 20 uM incubated for 48 hrs by Annexin V-FITC/PI staining based flow cytometry (reference value: 82.2%); type: functional; conditions: read-out: Activity
[9] = tested on: HCT-116; assay: Induction of cell cycle arrest in human HCT-116 cells expressing wild type p53 assessed as accumulation of cells at G1 phase at 10 uM incubated for 24 hrs by PI staining based flow cytometry (reference value: 62.5 to 66.7%); type: functional
[10] = tested on: HCT-116; assay: Induction of apoptosis in human HCT-116 cells expressing wild type p53 assessed as late apoptotic cells at 20 uM incubated for 48 hrs by Annexin V-FITC/PI staining based flow cytometry (reference value: 5.37%); type: functional
[11] = tested on: HCT-116; assay: Induction of cell cycle arrest in human HCT-116 cells expressing wild type p53 assessed as accumulation of cells at S phase at 20 uM incubated for 24 hrs by PI staining based flow cytometry (reference value: 0.52 to 3.83%); type: functional
[12] = tested on: HCT-116; assay: Induction of intracellular ROS generation in human HCT-116 cells at 20 uM incubated for 24 hrs by DCFH-DA staining based fluorescence analysis; type: functional, cell-based
[13] = tested on: HCT-116; assay: Increase in mitochondrial complex III activity in human HCT-116 cells at 20 uM incubated for 24 hrs; type: functional, cell-based
[14] = tested on: HCT-116; assay: Upregulation of p53 protein expression in human HCT-116 cells expressing wild type p53 at 20 uM incubated for 24 hrs by western blot analysis; type: functional, cell-based
[15] = tested on: LoVo; assay: Cytotoxicity against human LoVo cells expressing wild type p53 assessed as induction of cell death at 20 uM incubated for 72 hrs by resazurin based analysis; type: functional
[16] = tested on: HCT-116; assay: Upregulation of p53 protein expression in human HCT-116 cells at 10 uM incubated for 24 hrs by western blot analysis; type: functional, cell-based
[17] = tested on: RKO; assay: Cytotoxicity against human RKO cells expressing wild type p53 assessed as induction of cell death at 20 uM incubated for 72 hrs by resazurin based analysis; type: functional
[18] = tested on: HCT-116; assay: Induction of ferroptosis in human HCT-116 cells assessed as reduction in GSH content at 20 uM incubated for 24 hrs; type: functional, cell-based
[19] = tested on: HCT-116; assay: Cytotoxicity against human HCT-116 cells assessed as reduction in cell viability at 10 uM incubated for 72 hrs in presence of autophagy inhibitor, 3-methyladenine by resazurin-based analysis; type: functional
[20] = tested on: HCT-116; assay: Upregulation of p53 protein expression in human HCT-116 cells at 10 uM incubated for 24 hrs in presence of 10 uM 5-FU by western blot analysis; type: functional, cell-based
[21] = tested on: HCT-116; assay: Induction of ferroptosis in human HCT-116 cells assessed as increase in iron content at 20 uM incubated for 24 hrs; type: functional, cell-based
[22] = tested on: HCT-116; assay: Induction of apoptosis in human HCT-116 cells expressing wild type p53 assessed as necrotic cells at 10 uM incubated for 48 hrs by Annexin V-FITC/PI staining based flow cytometry (reference value: 0.44%); type: functional
[23] = tested on: HCT-116; assay: Induction of cell cycle arrest in human HCT-116 cells expressing wild type p53 assessed as accumulation of cells at G2 phase at 10 uM incubated for 24 hrs by PI staining based flow cytometry (reference value: 30.7 to 31.5%); type: functional
[24] = tested on: HCT-116; assay: Cytotoxicity against human HCT-116 cells expressing wild type p53 assessed as induction of cell death at 20 uM incubated for 72 hrs by resazurin based analysis; type: functional
[25] = tested on: HCT-116; assay: Induction of cell cycle arrest in human HCT-116 cells expressing wild type p53 assessed as accumulation of cells at G2 phase at 5 uM incubated for 24 hrs by PI staining based flow cytometry (reference value: 30.7 to 31.5%); type: functional
[26] = tested on: HCT-116; assay: Downregulation of MDM2 protein expression in human HCT-116 cells at 10 uM incubated for 24 hrs by western blot analysis; type: functional, cell-based
[27] = tested on: HCT-116; assay: Potentiation of 5-FU-induced cytotoxicity in human HCT-116 cells assessed as reduction in cell viability at 10 uM incubated for 24 hrs in presence of 10 uM 5-FU by resazurin based analysis; type: functional
[28] = tested on: HCT-116; assay: Induction of cell cycle arrest in human HCT-116 cells expressing wild type p53 assessed as accumulation of cells at S phase at 5 uM incubated for 24 hrs by PI staining based flow cytometry (reference value: 0.52 to 3.83%); type: functional
[29] = tested on: HCT-116; assay: Induction of apoptosis in human HCT-116 cells expressing wild type p53 assessed as early apoptotic cells at 10 uM incubated for 48 hrs by Annexin V-FITC/PI staining based flow cytometry (reference value: 12.5%); type: functional
[30] = tested on: HCT-116; assay: Upregulation of BAX protein expression in human HCT-116 cells at 20 uM incubated for 24 hrs by western blot analysis; type: functional, cell-based
[31] = tested on: HCT-116; assay: Upregulation of phosphorylated p53 expression in human HCT-116 cells expressing wild type p53 at 20 uM incubated for 24 hrs by western blot analysis; type: functional, cell-based
[32] = tested on: HCT-116; assay: Cytotoxicity against human HCT-116 cells assessed as reduction in cell viability at 10 uM incubated for 72 hrs in presence of apoptosis inhibitor, Z-VAD-FMK by resazurin-based analysis; type: functional
[33] = tested on: HCT-116; assay: Cytotoxicity against human HCT-116 cells assessed as reduction in cell viability at 10 uM incubated for 72 hrs in presence of ferroptosis inhibitor, ferrostatin-1 by resazurin-based analysis; type: functional
[34] = target: Cellular tumor antigen p53 (Homo sapiens) (UniProt P04637); assay: Inhibition of p53 DNA binding activity in human HCT-116 cells assessed as reduction in DNA-protein complex formation at 20 uM incubated for 24 hrs by electrophoretic mobility shift analysis; type: cell-based
[35] = tested on: HCT-116; assay: Induction of apoptosis in human HCT-116 cells expressing wild type p53 assessed as early apoptotic cells at 20 uM incubated for 48 hrs by Annexin V-FITC/PI staining based flow cytometry (reference value: 12%); type: functional

COc1ccc(-c2cc(=O)c3c(O)cc(O)cc3o2)cc1-c1c(O)cc(O)c2c(=O)cc(-c3ccc(O)cc3)oc12 [BILOBETIN]
Activity [1]: Active | inhibition [2]: Active | Activity [3]: Active | Activity [4]: 51.2% | inhibition [5]: Active | Activity [6]: inactive | Activity [7]: inactive | viability at 20 µM [8]: 52.6% | Activity [9]: 59.9% | Activity [10]: 6.94% | Activity [11]: 7.24% | Activity [12]: Active | Activity [13]: Active | Activity [14]: Active | Activity [15]: Active | Activity [16]: Active | Activity [17]: Active | Activity [18]: Active | Activity [19]: inactive | Activity [20]: Active | Activity [21]: Active | Activity [22]: 0.46% | Activity [23]: 33.4% | Activity [24]: Active | Activity [25]: 32.7% | inhibition [26]: Active | Activity [27]: Active | Activity [28]: 1.81% | Activity [29]: 28% | Activity [30]: inactive | Activity [31]: Active | Activity [32]: inactive | Activity [33]: inactive | inhibition [34]: Active | Activity [35]: 39.9%

COc1cc(O)c2c(=O)cc(-c3ccc(OC)c(-c4c(O)cc(O)c5c(=O)cc(-c6ccc(O)cc6)oc45)c3)oc2c1 [GINKGETIN]
Activity [1]: Active | inhibition [2]: Active | Activity [3]: Active | Activity [4]: 45.3% | inhibition [5]: Active | Activity [6]: inactive | Activity [7]: inactive | viability at 20 µM [8]: 55.4% | Activity [9]: 51.2% | Activity [10]: 10.5% | Activity [11]: 1.47% | Activity [12]: Active | Activity [13]: Active | Activity [14]: Active | Activity [15]: Active | Activity [16]: Active | Activity [17]: Active | Activity [18]: Active | Activity [19]: inactive | Activity [20]: Active | Activity [21]: Active | Activity [22]: 0.99% | Activity [23]: 43.1% | Activity [24]: Active | Activity [25]: 39.2% | inhibition [26]: Active | Activity [27]: Active | Activity [28]: 1.2% | Activity [29]: 25.8% | Activity [30]: inactive | Activity [31]: Active | Activity [32]: inactive | Activity [33]: inactive | inhibition [34]: Active | Activity [35]: 33.6%

COc1ccc(-c2cc(=O)c3c(O)cc(O)c(-c4cc(-c5cc(=O)c6c(O)cc(O)cc6o5)ccc4OC)c3o2)cc1 [ISOGINKGETIN]
Activity [1]: Active | inhibition [2]: Active | Activity [3]: Active | Activity [4]: 47.3% | inhibition [5]: Active | Activity [6]: inactive | Activity [7]: inactive | viability at 20 µM [8]: 49.1% | Activity [9]: 52.6% | Activity [10]: 9.54% | Activity [11]: 3.82% | Activity [12]: Active | Activity [13]: Active | Activity [14]: Active | Activity [15]: Active | Activity [16]: Active | Activity [17]: Active | Activity [18]: Active | Activity [19]: inactive | Activity [20]: Active | Activity [21]: Active | Activity [22]: 0.92% | Activity [23]: 44.5% | Activity [24]: Active | Activity [25]: 36.7% | inhibition [26]: Active | Activity [27]: Active | Activity [28]: 3.37% | Activity [29]: 26.5% | Activity [30]: inactive | Activity [31]: Active | Activity [32]: inactive | Activity [33]: inactive | inhibition [34]: Active | Activity [35]: 40.6%
